The text below walks through data of ChEMBL document CHEMBL5046216, “Disrupting Tryptophan in the Central Hydrophobic Region Selectively Mitigates Immunomodulatory Activities of the Innate Defence Regulator Peptide IDR-1002” (J Med Chem, 2021).

Active and inactive are the calls of the source. The rule behind the calls is not given here.

The test system of assay [1] is Mus musculus. The experiment in a line: Effect on IL-30 level in dust-mite-induced BALB/c mouse model of airway inflammation assessed as greater than 2 fold induction at 6 mg/kg, sc administered for 2 weeks and measured 24 hrs post-HDM challenge by MSD multiplex assay. It is filed as functional, organism-based.
Assay [2] concerns Mus musculus. Put plainly: Effect on IL-25 level in dust-mite-induced BALB/c mouse model of airway inflammation assessed as greater than 2 fold induction at 6 mg/kg, sc administered for 2 weeks and measured 24 hrs post-HDM challenge by MSD multiplex assay. In kind it is functional, organism-based.
Assay [3] deals with Mus musculus. The experiment in a line: Effect on IL-15 level in dust-mite-induced BALB/c mouse model of airway inflammation assessed as greater than 2 fold induction at 6 mg/kg, sc administered for 2 weeks and measured 24 hrs post-HDM challenge by MSD multiplex assay. In kind it is functional, organism-based.
The subject of assay [4] is Mus musculus. The experiment in a line: Antiinflammatory activity in house dust-mite-induced BALB/c mouse model of airway inflammation assessed as suppression of total leukocyte count in BALF at 6 mg/kg, sc administered for 2 weeks and measured 24 hrs post-HDM challenge by Wright-Giemsa staining based microscopy. It is filed as functional.
Assay [5] relates to Mus musculus. The experiment in a line: Effect on IL-21 level in dust-mite-induced BALB/c mouse model of airway inflammation assessed as greater than 2 fold induction at 6 mg/kg, sc administered for 2 weeks and measured 24 hrs post-HDM challenge by MSD multiplex assay. In kind it is functional, organism-based.
Assay [6] concerns Mus musculus. The experiment in a line: Effect on IL-9 level in dust-mite-induced BALB/c mouse model of airway inflammation assessed as greater than 2 fold induction at 6 mg/kg, sc administered for 2 weeks and measured 24 hrs post-HDM challenge by MSD multiplex assay. It is filed as functional, organism-based.
Assay [7] deals with Mus musculus. Put plainly: Effect on MIP2 level in dust-mite-induced BALB/c mouse model of airway inflammation assessed as greater than 2 fold induction at 6 mg/kg, sc administered for 2 weeks and measured 24 hrs post-HDM challenge by MSD multiplex assay. In kind it is functional, organism-based.
The subject of assay [8] is Mus musculus. Put plainly: Effect on IL-6 level in dust-mite-induced BALB/c mouse model of airway inflammation assessed as greater than 2 fold induction at 6 mg/kg, sc administered for 2 weeks and measured 24 hrs post-HDM challenge by MSD multiplex assay. In kind it is functional, organism-based.
Assay [9] relates to Mus musculus. The experiment in a line: Antiinflammatory activity in house dust-mite-induced BALB/c mouse model of airway inflammation assessed as suppression of total eosinophil count in BALF at 6 mg/kg, sc administered for 2 weeks and measured 24 hrs post-HDM challenge by Wright-Giemsa staining based microscopy. It is filed as functional.
Assay [10] has as its system Mus musculus. Put plainly: Effect on IL-4 level in dust-mite-induced BALB/c mouse model of airway inflammation assessed as greater than 2 fold induction at 6 mg/kg, sc administered for 2 weeks and measured 24 hrs post-HDM challenge by MSD multiplex assay. In kind it is functional, organism-based.
The test system of assay [11] is Mus musculus. The experiment in a line: Antiinflammatory activity in house dust-mite-induced BALB/c mouse model of methacholine-induced airway hyperreactivity assessed as reduction in methacholine-induced tissue damping at 6 mg/kg , ip administered for 2 weeks after methacholine-stimulation at 50 mg/ml measured 24 hrs post-HDM challenge. It is filed as functional. More on the design: scale not given: the % may be the effect or the level left.

Assay [12] deals with Mus musculus. Put plainly: Effect on IL-22 level in dust-mite-induced BALB/c mouse model of airway inflammation assessed as greater than 2 fold induction at 6 mg/kg, sc administered for 2 weeks and measured 24 hrs post-HDM challenge by MSD multiplex assay. In kind it is functional, organism-based.
For assay [13], the system named is Mus musculus. Put plainly: Effect on IL-17C level in dust-mite-induced BALB/c mouse model of airway inflammation assessed as greater than 2 fold induction at 6 mg/kg, sc administered for 2 weeks and measured 24 hrs post-HDM challenge by MSD multiplex assay. It is filed as functional, organism-based.
A further assay relates to HBEC3-KT. Put plainly: Antiinflammatory activity in human HBEC3-KT cells assessed as effect on MCP1 expression measured after 24 hrs by ELISA relative to control. It is filed as functional, cell-based.
The test system of assay [14] is Mus musculus. The experiment in a line: Effect on IL-17F level in dust-mite-induced BALB/c mouse model of airway inflammation assessed as greater than 2 fold induction at 6 mg/kg, sc administered for 2 weeks and measured 24 hrs post-HDM challenge by MSD multiplex assay. It is filed as functional, organism-based.
Assay [15] concerns Mus musculus. Put plainly: Effect on IL-1beta level in dust-mite-induced BALB/c mouse model of airway inflammation assessed as greater than 2 fold induction at 6 mg/kg, sc administered for 2 weeks and measured 24 hrs post-HDM challenge by MSD multiplex assay. In kind it is functional, organism-based.

Take H-VQRWLIVRRIRK-OH: the outcome in the assay with Mus musculus [1], in the assay with Mus musculus [2], in the assay on Mus musculus [3], in the assay with Mus musculus [4], in the assay on Mus musculus [5] and in the assay on Mus musculus [6] was inactive. In addition, the result in the assay with Mus musculus [7], with Mus musculus [8], in the assay with Mus musculus [9], in the assay on Mus musculus [10], with Mus musculus [12] and in the assay with Mus musculus [13] was inactive. Besides, the outcome in the assay with HBEC3-KT, with Mus musculus [14] and with Mus musculus [15] was inactive. For the same substance, the Activity in the assay on Mus musculus [11] amounted to 64%.
On to H-VQRWLIVWRIRK-OH, for which the outcome with Mus musculus [1], with Mus musculus [2], in the assay on Mus musculus [3], in the assay on Mus musculus [5], in the assay with Mus musculus [6] and in the assay on Mus musculus [7] was inactive. The result with Mus musculus [8], in the assay with Mus musculus [10], in the assay with Mus musculus [12], with Mus musculus [13], with HBEC3-KT and in the assay on Mus musculus [14] was inactive. In addition, the result in the assay with Mus musculus [15] was inactive. Also, the Activity in the assay with Mus musculus [4] came to 66%; with Mus musculus [9], 63%. Also, in the assay on Mus musculus [11], the result was Active.
